Here are results for 7 compounds from ChEMBL document CHEMBL3132769, “Fragment growing to retain or alter the selectivity of anchored kinase hinge-binding fragments” (Medchemcomm, 2014).

For assay [1], the target named is T1, Serine/threonine-protein kinase Sgk3 (Homo sapiens) (UniProt Q96BR1).
T1 sequence (whole entry): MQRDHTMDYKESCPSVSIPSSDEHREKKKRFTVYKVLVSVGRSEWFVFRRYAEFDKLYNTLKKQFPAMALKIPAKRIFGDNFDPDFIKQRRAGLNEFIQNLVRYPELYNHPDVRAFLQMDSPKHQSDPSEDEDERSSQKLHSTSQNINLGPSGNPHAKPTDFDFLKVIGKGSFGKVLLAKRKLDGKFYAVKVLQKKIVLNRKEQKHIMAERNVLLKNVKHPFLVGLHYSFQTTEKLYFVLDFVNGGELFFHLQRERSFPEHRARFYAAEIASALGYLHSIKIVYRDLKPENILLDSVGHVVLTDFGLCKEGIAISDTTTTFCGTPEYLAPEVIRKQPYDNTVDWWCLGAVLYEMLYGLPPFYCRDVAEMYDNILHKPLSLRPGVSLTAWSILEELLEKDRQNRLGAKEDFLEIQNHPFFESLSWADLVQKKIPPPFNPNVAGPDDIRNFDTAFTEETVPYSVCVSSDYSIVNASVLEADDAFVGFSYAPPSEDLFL
Nature of the assay: Inhibition of human full length SGK3 expressed in baculovirus assessed as substrate phosphorylation using fluorescence-labelled peptides as substrate at 2 uM after 90 mins by microfluidic peptide phosphorylation assay.

Assay [2] has as its target Fibroblast growth factor receptor 1 (Homo sapiens) (UniProt P11362). The assay can be described thus: Inhibition of human FGFR1 catalytic domain expressed in baculovirus assessed as substrate phosphorylation using fluorescence-labelled peptides as substrate at 2 uM after 90 mins by microfluidic peptide phosphorylation assay.
For assay [3], the target named is Aurora kinase B (Homo sapiens) (UniProt Q96GD4). The assay can be described thus: Inhibition of human full length AurB expressed in baculovirus assessed as substrate phosphorylation using fluorescence-labelled peptides as substrate at 0.06 uM after 90 mins by microfluidic peptide phosphorylation assay.
Chain of Aurora kinase B (Homo sapiens) (Q96GD4 whole entry): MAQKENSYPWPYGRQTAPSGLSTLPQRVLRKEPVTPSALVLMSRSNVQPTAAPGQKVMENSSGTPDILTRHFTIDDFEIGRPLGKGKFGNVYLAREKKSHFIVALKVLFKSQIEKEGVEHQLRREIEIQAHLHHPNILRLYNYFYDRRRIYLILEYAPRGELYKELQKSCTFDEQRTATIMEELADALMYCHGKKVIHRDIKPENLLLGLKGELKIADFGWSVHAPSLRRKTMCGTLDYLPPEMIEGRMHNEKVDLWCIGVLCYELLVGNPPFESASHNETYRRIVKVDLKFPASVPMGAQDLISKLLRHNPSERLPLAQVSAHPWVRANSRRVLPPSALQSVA
Assay [4] addresses Tyrosine-protein kinase ABL1 (Homo sapiens) (UniProt P00519). Nature of the assay: Inhibition of human full-length ABL expressed in baculovirus assessed as substrate phosphorylation using fluorescence-labelled peptides as substrate at 9 uM after 90 mins by microfluidic peptide phosphorylation assay.
In assay [5] the test system is Fibroblast growth factor receptor 2 (Homo sapiens), P21802 [N549H]. The assay can be described thus: Inhibition of human FGFR2 N549H mutant catalytic domain expressed in baculovirus assessed as substrate phosphorylation using fluorescence-labelled peptides as substrate at 9 uM after 90 mins by microfluidic peptide phosphorylation assay.
Chain of Fibroblast growth factor receptor 2 (Homo sapiens), P21802 [N549H] (P21802 whole entry N549H, the tested form may be a part): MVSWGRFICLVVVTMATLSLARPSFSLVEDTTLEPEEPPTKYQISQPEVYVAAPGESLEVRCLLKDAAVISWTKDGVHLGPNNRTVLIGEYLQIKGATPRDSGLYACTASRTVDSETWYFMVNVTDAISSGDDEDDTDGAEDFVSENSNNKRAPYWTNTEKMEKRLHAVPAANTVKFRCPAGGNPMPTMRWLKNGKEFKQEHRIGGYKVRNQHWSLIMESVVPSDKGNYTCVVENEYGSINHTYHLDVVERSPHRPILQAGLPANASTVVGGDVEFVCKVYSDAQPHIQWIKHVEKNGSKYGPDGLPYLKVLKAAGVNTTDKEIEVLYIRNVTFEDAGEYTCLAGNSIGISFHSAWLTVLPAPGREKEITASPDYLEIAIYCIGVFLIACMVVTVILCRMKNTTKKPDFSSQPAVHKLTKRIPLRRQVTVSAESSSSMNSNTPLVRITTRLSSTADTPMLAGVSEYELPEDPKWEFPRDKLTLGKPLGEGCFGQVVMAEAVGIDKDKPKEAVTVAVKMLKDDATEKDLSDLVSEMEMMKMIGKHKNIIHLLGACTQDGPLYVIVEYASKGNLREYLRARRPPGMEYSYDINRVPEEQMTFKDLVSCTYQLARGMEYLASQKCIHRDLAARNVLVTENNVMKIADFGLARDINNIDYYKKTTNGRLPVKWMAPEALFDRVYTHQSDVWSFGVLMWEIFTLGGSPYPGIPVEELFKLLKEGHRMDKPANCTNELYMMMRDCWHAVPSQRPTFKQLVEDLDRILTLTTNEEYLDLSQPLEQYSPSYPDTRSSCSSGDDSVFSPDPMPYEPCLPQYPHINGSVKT
Assay [6] has as its target T2, MAP kinase-activated protein kinase 5 (Homo sapiens) (UniProt Q8IW41).
T2 sequence (whole entry): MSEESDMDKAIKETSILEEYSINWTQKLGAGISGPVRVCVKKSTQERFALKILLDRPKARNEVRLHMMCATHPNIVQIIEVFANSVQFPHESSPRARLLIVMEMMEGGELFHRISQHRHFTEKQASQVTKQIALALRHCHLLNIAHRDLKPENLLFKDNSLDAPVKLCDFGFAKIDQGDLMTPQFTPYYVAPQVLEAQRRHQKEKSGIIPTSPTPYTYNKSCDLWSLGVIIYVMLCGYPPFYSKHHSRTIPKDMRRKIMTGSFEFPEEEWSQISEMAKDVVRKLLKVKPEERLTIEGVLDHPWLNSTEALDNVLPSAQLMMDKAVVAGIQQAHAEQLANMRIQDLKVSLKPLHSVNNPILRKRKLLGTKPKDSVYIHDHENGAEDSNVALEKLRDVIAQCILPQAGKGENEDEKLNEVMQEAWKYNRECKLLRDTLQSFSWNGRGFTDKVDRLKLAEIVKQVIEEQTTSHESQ
The assay can be described thus: Inhibition of human full length PRAK expressed in baculovirus assessed as substrate phosphorylation using fluorescence-labelled peptides as substrate at 95 uM after 90 mins by microfluidic peptide phosphorylation assay.

The target in assay [7] is Tyrosine-protein kinase ABL2 (Homo sapiens) (UniProt P42684). The assay can be described thus: Inhibition of human truncated Arg expressed in baculovirus assessed as substrate phosphorylation using fluorescence-labelled peptides as substrate at 8 uM after 90 mins by microfluidic peptide phosphorylation assay.
Chain of Tyrosine-protein kinase ABL2 (Homo sapiens) (P42684 whole entry, the tested form may be a part): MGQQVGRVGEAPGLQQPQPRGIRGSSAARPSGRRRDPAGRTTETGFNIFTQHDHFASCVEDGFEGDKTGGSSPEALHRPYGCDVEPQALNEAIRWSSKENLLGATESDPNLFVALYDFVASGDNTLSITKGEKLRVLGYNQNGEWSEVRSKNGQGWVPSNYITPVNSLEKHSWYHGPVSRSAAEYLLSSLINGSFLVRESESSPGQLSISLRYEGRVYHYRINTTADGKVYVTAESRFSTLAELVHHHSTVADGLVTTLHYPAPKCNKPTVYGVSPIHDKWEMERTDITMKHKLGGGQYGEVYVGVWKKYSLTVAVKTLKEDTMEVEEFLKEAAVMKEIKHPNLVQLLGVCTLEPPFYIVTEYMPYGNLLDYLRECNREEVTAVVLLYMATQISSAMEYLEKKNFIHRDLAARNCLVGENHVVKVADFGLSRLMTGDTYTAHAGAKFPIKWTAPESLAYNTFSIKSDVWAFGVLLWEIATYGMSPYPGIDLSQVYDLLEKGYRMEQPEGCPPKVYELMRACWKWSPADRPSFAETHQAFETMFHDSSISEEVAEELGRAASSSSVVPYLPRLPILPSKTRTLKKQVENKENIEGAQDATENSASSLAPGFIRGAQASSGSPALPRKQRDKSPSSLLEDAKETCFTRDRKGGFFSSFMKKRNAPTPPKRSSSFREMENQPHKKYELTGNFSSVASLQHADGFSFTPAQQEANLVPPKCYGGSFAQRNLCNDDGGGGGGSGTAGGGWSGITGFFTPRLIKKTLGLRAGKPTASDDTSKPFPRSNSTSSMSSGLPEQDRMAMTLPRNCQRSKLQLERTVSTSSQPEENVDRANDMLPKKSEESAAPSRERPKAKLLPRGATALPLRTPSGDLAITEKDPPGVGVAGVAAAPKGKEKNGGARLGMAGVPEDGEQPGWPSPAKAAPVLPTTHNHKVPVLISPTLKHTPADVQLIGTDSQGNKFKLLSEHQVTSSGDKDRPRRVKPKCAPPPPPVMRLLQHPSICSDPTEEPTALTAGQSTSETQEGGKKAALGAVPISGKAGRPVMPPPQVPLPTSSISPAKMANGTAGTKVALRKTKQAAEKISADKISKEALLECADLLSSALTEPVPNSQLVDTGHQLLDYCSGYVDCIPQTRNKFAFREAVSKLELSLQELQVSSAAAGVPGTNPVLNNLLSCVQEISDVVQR
The target of assay [8] is Receptor-type tyrosine-protein kinase FLT3 (Homo sapiens) (UniProt P36888). The assay can be described thus: Inhibition of human FLT3 catalytic domain expressed in baculovirus assessed as substrate phosphorylation using fluorescence-labelled peptides as substrate at […] after 90 mins by microfluidic peptide phosphorylation assay.
Assay [9] addresses T3, Serine/threonine-protein kinase Nek2 (Homo sapiens) (UniProt P51955).
T3 sequence (whole entry): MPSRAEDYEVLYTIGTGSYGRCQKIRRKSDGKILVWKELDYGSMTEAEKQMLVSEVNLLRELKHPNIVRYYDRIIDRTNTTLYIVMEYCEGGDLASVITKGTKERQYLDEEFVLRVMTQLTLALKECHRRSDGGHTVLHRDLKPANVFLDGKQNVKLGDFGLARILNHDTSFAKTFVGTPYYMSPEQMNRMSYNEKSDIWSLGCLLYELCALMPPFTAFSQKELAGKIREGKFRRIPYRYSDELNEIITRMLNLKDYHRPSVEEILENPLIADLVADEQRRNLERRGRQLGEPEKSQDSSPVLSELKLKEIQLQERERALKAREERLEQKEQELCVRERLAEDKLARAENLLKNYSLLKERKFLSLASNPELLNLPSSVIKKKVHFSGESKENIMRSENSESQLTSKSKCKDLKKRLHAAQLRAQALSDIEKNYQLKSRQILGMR
The assay can be described thus: Inhibition of human full length NEK2 expressed in baculovirus assessed as substrate phosphorylation using fluorescence-labelled peptides as substrate at […] after 90 mins by microfluidic peptide phosphorylation assay.

For assay [10], the target named is Casein kinase I isoform delta (Homo sapiens) (UniProt P48730). The assay can be described thus: Inhibition of human CK1D catalytic domain expressed in Escherichia coli cell assessed as substrate phosphorylation using fluorescence-labelled peptides as substrate at 420 uM after 90 mins by microfluidic peptide phosphorylation assay.
Chain of Casein kinase I isoform delta (Homo sapiens) (P48730 whole entry, looked up, the tested form may be a part, canonical isoform): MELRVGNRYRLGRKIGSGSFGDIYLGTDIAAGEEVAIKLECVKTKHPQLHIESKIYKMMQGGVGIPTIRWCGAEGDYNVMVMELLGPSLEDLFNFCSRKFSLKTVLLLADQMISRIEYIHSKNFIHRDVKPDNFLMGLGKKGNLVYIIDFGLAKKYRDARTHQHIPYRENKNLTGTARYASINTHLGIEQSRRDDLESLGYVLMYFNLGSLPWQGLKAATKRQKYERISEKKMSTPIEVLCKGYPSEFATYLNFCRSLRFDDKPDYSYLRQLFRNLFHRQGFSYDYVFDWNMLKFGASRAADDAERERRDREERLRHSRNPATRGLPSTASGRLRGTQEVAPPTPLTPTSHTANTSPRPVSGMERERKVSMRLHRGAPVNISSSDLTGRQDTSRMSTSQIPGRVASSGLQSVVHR

Chain of Fibroblast growth factor receptor 1 (Homo sapiens) (P11362 22-822 limits assumed): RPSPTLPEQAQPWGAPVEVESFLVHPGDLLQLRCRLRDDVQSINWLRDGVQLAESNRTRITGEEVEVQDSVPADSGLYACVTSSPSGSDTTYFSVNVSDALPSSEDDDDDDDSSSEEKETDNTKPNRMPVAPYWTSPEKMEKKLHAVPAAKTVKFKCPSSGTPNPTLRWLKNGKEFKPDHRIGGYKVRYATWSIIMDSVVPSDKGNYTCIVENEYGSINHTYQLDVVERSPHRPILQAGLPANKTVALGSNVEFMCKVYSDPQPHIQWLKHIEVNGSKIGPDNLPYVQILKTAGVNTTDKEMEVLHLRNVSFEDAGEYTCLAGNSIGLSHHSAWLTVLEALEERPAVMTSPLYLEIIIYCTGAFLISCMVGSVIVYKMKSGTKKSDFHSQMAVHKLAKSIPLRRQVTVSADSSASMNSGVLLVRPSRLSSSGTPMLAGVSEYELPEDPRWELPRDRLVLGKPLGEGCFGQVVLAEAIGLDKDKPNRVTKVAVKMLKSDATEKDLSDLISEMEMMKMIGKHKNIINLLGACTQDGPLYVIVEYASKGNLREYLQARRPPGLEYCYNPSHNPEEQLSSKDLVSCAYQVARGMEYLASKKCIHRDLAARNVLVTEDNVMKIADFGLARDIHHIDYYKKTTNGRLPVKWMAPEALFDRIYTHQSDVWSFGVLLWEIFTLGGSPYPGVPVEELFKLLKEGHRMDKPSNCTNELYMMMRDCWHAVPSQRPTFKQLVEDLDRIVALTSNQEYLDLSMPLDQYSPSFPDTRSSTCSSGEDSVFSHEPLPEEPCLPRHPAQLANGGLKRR
Chain of Tyrosine-protein kinase ABL1 (Homo sapiens) (P00519 whole entry, the tested form may be a part): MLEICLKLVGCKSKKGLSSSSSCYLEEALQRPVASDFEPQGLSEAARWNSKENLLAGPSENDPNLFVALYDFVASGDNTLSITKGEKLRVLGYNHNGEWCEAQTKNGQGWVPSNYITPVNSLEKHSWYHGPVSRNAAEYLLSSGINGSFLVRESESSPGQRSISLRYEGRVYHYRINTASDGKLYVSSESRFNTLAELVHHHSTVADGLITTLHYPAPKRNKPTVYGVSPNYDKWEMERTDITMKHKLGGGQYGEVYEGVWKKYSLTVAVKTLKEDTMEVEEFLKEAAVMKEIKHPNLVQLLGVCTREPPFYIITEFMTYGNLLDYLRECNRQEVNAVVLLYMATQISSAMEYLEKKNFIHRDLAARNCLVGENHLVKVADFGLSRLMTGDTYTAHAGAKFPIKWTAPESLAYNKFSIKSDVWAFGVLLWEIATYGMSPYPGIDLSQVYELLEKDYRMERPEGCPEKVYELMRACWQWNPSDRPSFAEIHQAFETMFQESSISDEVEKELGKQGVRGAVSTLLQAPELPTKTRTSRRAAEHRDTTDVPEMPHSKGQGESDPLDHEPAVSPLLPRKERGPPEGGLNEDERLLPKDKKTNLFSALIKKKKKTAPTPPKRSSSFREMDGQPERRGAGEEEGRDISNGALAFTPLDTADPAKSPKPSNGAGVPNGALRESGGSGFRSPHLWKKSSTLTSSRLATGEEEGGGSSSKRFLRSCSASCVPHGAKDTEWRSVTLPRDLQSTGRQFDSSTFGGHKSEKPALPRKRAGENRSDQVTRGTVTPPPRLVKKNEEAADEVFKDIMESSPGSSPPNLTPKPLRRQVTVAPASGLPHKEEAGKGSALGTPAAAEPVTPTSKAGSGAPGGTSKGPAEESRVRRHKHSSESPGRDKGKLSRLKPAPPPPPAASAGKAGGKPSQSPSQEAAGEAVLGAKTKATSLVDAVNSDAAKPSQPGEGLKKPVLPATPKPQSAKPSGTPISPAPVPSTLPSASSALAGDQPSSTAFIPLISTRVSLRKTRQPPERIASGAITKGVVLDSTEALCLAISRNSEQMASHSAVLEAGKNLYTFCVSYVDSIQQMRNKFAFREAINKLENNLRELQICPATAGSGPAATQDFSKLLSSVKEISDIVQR

With `NC1CCN(c2ncnc3[nH]ccc23)CC1`, the inhibition in assay [1] worked out at 34.5%; in assay [2], 1.5%. Consider `NC1(Cc2ccc(Cl)cc2)CCN(c2ncnc3[nH]ccc23)CC1`, for which the inhibition in assay [3] came to 0%. Regarding `NCC1CN(c2ncnc3[nH]c4cnccc4c23)CCO1` (stereo not given), the inhibition in assay [4] worked out at 12%; in assay [5], 47.5%. As for `NCCc1ccc(-c2ncnc3[nH]cnc23)cc1`, the inhibition in assay [6] came to 35%. Take `NCC1CCN(c2ncnc3[nH]ccc23)CC1`: the inhibition in assay [7] is 3.5%. For `COC(=O)c1cnc(Nc2cnc(C#N)cn2)cc1NCC1CCNCC1`, the inhibition worked out at 21% in [8] and 0.5% in [9]. For `c1nc(N2CCOCC2)c2nc[nH]c2n1`, the inhibition in assay [10] was 81.5%.
